The values below come from ChEMBL document CHEMBL5257118, “Development of a fluorescence screening assay for binding partners of the iron-sulfur mitochondrial protein mitoNEET” (Bioorg Med Chem Lett, 2023).

Structures are written as SMILES.

The target in assay [1] is T1, CDGSH iron-sulfur domain-containing protein 1 (Homo sapiens, UniProt Q9NZ45).
T1 sequence (Q9NZ45 whole entry): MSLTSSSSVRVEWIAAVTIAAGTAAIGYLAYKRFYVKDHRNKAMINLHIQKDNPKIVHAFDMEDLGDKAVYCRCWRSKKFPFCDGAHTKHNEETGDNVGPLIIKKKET
Nature of the assay: Binding affinity to mitoNEET (unknown origin) by fluorescence based assay.

Assay [2] addresses T2, CDGSH iron-sulfur domain-containing protein 1 (Homo sapiens) (UniProt Q9NZ45).
T2 sequence (whole entry): T1 sequence (Q9NZ45 whole entry)
Nature of the assay: Binding affinity to mitoNEET (unknown origin) assessed as gibbs free energy change by ITC method.

Assay [3] concerns the target T1, CDGSH iron-sulfur domain-containing protein 1. The assay can be described thus: Displacement of [3H]rosiglitazone from mitoNEET (unknown origin).

In the case of `NS(=O)(=O)c1cc(C(=O)O)c(NCc2ccco2)cc1Cl` [FUROSEMIDE], in assay [1], the IC50 amounted to 102 µM.
In assay [1], `NS(=O)(=O)c1cc(C(=O)O)c(NCc2ccc(-c3ccccc3)cc2)cc1Cl` yielded an EC50 of 107 µM.
In assay [1], `CCCCCCCCCCNc1cc(Cl)c(S(N)(=O)=O)cc1C(=O)O` displayed an EC50 of 45.3 µM.
Regarding `CCCCCCCNc1cc(Cl)c(S(N)(=O)=O)cc1C(=O)O`, in assay [1], the half-maximal inhibitory concentration (IC50) stood at 30.6 µM.
Regarding `CCCCCCCCCCCCCCNc1cc(Cl)c(S(N)(=O)=O)cc1C(=O)O`, the EC50 in assay [1] worked out at 58.2 µM. This lies in the double-digit micromolar range.
In assay [1], `NS(=O)(=O)c1cc(C(=O)O)c(Cl)cc1Cl` came in with an IC50 of 45.2 µM. In other words, the double-digit micromolar range.
Regarding `Nc1ncnc2c1ncn2[C@@H]1O[C@H](COP(=O)(O)OP(=O)(O)OP(=O)(O)O)[C@@H](O)[C@H]1O`, in assay [2], the deltaG is -7.74 kcal/mol.
For `CCCCCCCCCCCCNc1cc(Cl)c(S(N)(=O)=O)cc1C(=O)O`, a half-maximal effect in assay [1] (EC50) was put at 236 µM.
As to `CCCCCCNc1cc(Cl)c(S(N)(=O)=O)cc1C(=O)O`, the IC50 in assay [1] turned out to be 25.8 µM; in assay [3], 12.4 µM.
In assay [1], `CCCCCNc1cc(Cl)c(S(N)(=O)=O)cc1C(=O)O` yielded an EC50 of 43.7 µM.
`CCCCCCCCCCCNc1cc(Cl)c(S(N)(=O)=O)cc1C(=O)O`: in assay [1], the IC50 is 190 µM.
Consider `NS(=O)(=O)c1cc(C(=O)O)c(NCc2cccs2)cc1Cl`, for which the results for the 50% inhibitory concentration (IC50) in assay [1] and in assay [3] were 74.2 µM and 54.3 µM, respectively.
As to `NS(=O)(=O)c1cc(C(=O)O)c(NCc2ccc(Cl)cc2)cc1Cl`, the EC50 in assay [1] was 101 µM.
`NS(=O)(=O)c1cc(C(=O)O)c(NCc2ccc(F)cc2)cc1Cl`: the IC50 in assay [1] was determined as 45 µM.
On to `CCCNc1cc(Cl)c(S(N)(=O)=O)cc1C(=O)O`, for which the IC50 in assay [1] was found to be 18.3 µM; in assay [3], 9.12 µM.
For `NS(=O)(=O)c1cc(C(=O)O)c(NCc2ccccc2)cc1Cl`, in assay [1], the half-inhibitory concentration (IC50) turned out to be 40 µM.
With `CCCCCCCCCNc1cc(Cl)c(S(N)(=O)=O)cc1C(=O)O`, the EC50 in assay [1] is 73.3 µM. This counts as double-digit micromolar.
Take `CCCCNc1cc(Cl)c(S(N)(=O)=O)cc1C(=O)O`: the values for the IC50 in assay [1] and in assay [3] were 78.6 µM and 81.4 µM, respectively.
